Measurements: patent publication US20110034526A1, “Benzimidazole Compounds” (Wyeth LLC, priority 2007, published 2011)

Assays:
human LXRα = molecular target: T1, human LXRα (Homo sapiens, UniProt Q13133); assay: Ligand-binding test procedure for human LXRα (3H T0901317 tracer, flash plates); conditions: biotinylated hLXRα, tracer 3H T0901317
T1 construct: biotin (biotinylated); made in house; host or cells: E. coli (crude extract)
T1 sequence (Q13133 1-447): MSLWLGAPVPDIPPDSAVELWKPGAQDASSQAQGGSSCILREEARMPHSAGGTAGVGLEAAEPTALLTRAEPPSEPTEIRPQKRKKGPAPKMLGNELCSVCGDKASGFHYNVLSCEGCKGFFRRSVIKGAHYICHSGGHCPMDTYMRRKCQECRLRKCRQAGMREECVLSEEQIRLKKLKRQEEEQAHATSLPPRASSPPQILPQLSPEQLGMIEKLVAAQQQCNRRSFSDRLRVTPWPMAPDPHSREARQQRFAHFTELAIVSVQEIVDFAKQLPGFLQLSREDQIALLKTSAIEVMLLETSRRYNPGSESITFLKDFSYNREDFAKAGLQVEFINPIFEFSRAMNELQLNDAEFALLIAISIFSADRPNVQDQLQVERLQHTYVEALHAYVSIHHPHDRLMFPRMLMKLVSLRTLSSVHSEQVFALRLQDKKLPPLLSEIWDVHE
Description: Receptor source: E. coli extract from cells expressing biotinylated hLXRcc. Extract was made in a similar buffer as above, but with 50 mM TRIS.
Washed streptavidin and coated flash plates with wash buffer. Diluted receptor extract to give Bmax ˜4000 cpm and add to the wells. Wrapped the plates in aluminum foil and stored them at +4° C. over night.
(§1) Made a dilution series in DMSO of the test ligands. Made a 5 nM solution of the radioactive tracer in buffer. Mixed 250 μl diluted tracer with 5 μl of the test ligand from each concentration of the dilution series. Washed the receptor-coated flash plates. Added 200 μl per well of the ligand/radiolabel mixture to the receptor-coated flash plates. Wrapped the plates in aluminum foil and incubate at +4° C. over night.
Aspirated wells, and wash the flashed plates. Sealed the plate. Measured the remaining radioactivity in the plate.

human LXRβ = molecular target: T2, human LXRβ (Homo sapiens, UniProt P55055); assay: Ligand-binding test procedure for human LXRβ (3H T0901317 tracer, flash plates)
T2 construct: biotin (biotinylated); made in house; host or cells: E. coli (crude extract)
T2 sequence (P55055 1-460): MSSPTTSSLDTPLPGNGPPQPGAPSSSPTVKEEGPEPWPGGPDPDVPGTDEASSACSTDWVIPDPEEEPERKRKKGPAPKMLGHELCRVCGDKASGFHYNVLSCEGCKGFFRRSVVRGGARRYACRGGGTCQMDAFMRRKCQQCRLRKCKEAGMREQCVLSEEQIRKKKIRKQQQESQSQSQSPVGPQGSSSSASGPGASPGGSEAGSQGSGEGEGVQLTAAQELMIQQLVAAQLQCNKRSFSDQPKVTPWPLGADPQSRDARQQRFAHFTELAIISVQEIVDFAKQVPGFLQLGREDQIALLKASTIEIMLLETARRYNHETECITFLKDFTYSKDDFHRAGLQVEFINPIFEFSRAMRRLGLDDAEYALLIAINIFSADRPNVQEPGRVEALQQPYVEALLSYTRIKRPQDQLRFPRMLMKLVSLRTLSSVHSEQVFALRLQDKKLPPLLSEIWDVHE
Description: Receptor source: E. coli extracted from cells expressing biotinylated hLXRβ. Extract was made in a similar buffer as above, but with 50 mM TRIS.
Washed streptavidin and coated flash plates with wash buffer. Diluted receptor extract to give Bmax ˜4000 cpm and add to the wells. Wrapped the plates in aluminum foil and stored them at +4° C. overnight.
as §1
Aspirated wells, and washed the flashed plates. Sealed the plate. Measured the remaining radioactivity in the plate.

Row | IC50 (human LXRα) | IC50 (human LXRβ) | SMILES
1 | > 1000 nM | 1230 nM | CCc1nc2c(C(F)(F)F)cccc2n1-c1ccc(Oc2cccc(S(=O)(=O)CC)c2)cc1 [Example 68, 2-ethyl-1-{4-[3-(ethylsulfonyl)phenoxy]phenyl}-4-(trifluoromethyl)-1H-benzimidazole]
2 | 6110 nM | 634 nM | CCS(=O)(=O)c1cccc(Oc2ccc(-n3cnc4c(C(F)(F)F)cccc43)c(C)c2)c1 [Example 91, 1-{4-[3-(ethylsulfonyl)phenoxy]-2-methylphenyl}-4-(trifluoromethyl)-1H-benzimidazole]
3 | > 1000 nM | > 1000 nM | CS(=O)(=O)c1cccc(COc2ccc(-n3c(C(F)(F)F)nc4c(C(F)(F)F)cccc43)cc2)c1 [Example 86, 1-(4-{[3-(methylsulfonyl)benzyl]oxy}phenyl)-2,4-bis(trifluoromethyl)-1H-benzimidazole]
4 | 12000 nM | 1310 nM | Cc1cc(Oc2ccc(S(C)(=O)=O)cc2)ccc1-n1c(C)nc2c(C(F)(F)F)cccc21 [Example 100, 2-methyl-1-{2-methyl-4-[4-(methylsulfonyl)phenoxy]phenyl}-4-(trifluoromethyl)-1H-benzimidazole]
5 | 746 nM | 170 nM | Cc1nc2c(Cl)cccc2n1-c1cccc(Oc2ccccc2S(C)(=O)=O)c1 [Example 50, 4-chloro-2-methyl-1-{3-[2-(methylsulfonyl)phenoxy]phenyl}-1H-benzimidazole]
6 | 3000 nM | 357 nM | Cc1nc2c(Cl)cccc2n1-c1cccc(Oc2ccc(S(C)(=O)=O)cc2F)c1 [Example 52, 4-chloro-1-{3-[2-fluoro-4-(methylsulfonyl)phenoxy]phenyl}-2-methyl-1H-benzimidazole]
7 | 6530 nM | 802 nM | Cc1cc(Oc2cccc(S(C)(=O)=O)c2)ccc1-n1cnc2c(C(F)(F)F)cccc21 [Example 90, 1-{2-methyl-4-[3-(methylsulfonyl)phenoxy]phenyl}-4-(trifluoromethyl)-1H-benzimidazole]
8 | 14 nM | 3.7 nM | CCCS(=O)(=O)c1cccc(Oc2cccc(-n3c(C)nc4c(Cl)cccc43)c2)c1 [Example 43, 4-chloro-2-methyl-1-{3-[3-(propylsulfonyl)phenoxy]phenyl}-1H-benzimidazole]
9 | 36 nM | 3.6 nM | Cc1nc2c(Cl)cccc2n1-c1cccc(Oc2cc(Cl)cc(S(C)(=O)=O)c2)c1 [Example 46, 4-chloro-1-{3-[3-chloro-5-(methylsulfonyl)phenoxy]phenyl}-2-methyl-1H-benzimidazole]
10 | 2100 nM | 122 nM | CCS(=O)(=O)c1cccc(Oc2ccc(-n3c(C)nc4c(C(F)(F)F)cccc43)c(C)c2)c1 [Example 94]
11 | 2780 nM | 191 nM | Cc1cc(Oc2cccc(S(C)(=O)=O)c2)ccc1-n1c(C)nc2c(C(F)(F)F)cccc21 [Example 93, 2-methyl-1-{2-methyl-4-[3-(methylsulfonyl)phenoxy]phenyl}-4-(trifluoromethyl)-1H-benzimidazole]
12 | 5070 nM | 1890 nM | CCc1nc2c(C(F)(F)F)cccc2n1-c1ccc(OCc2cccc(S(C)(=O)=O)c2)cc1 [Example 85, 2-ethyl-1-(4-{[3-(methylsulfonyl)benzyl]oxy}phenyl)-4-(trifluoromethyl)-1H-benzimidazole]
13 | 2710 nM | 357 nM | CCS(=O)(=O)c1cccc(Oc2ccc(-n3cnc4c(C(F)(F)F)cccc43)c(Cl)c2)c1 [Example 105, 1-{2-chloro-4-[3-(ethylsulfonyl)phenoxy]phenyl}-4-(trifluoromethyl)-1H-benzimidazole]
14 | 7000 nM | 290 nM | Cc1nc2c(C(F)(F)F)cccc2n1-c1cccc(Oc2cccc(S(=O)(=O)CCC(C)(C)O)c2)c1 [Example 11, 2-methyl-4-[(3-{3-[2-methyl-4-(trifluoromethyl)-1H-benzimidazol-1-yl]phenoxy}-phenyl)sulfonyl]butan-2-ol]
15 | 812 nM | 65 nM | CCS(=O)(=O)c1ccc(Oc2ccc(Cl)c(-n3c(C)nc4c(Cl)cccc43)c2)cc1 [Example 62, 4-chloro-1-{2-chloro-5-[4-(ethylsulfonyl)phenoxy]phenyl}-2-methyl-1H-benzimidazole]
16 | 258 nM | 20 nM | Cc1nc2c(Cl)cccc2n1-c1cccc(Oc2cccc(S(=O)(=O)CCC(C)C)c2)c1 [Example 53]
17 | 3260 nM | 348 nM | Cc1cc(Oc2cccc(S(=O)(=O)C(C)C)c2)ccc1-n1cnc2c(C(F)(F)F)cccc21 [Example 92, 1-(2-methyl-4-{3-[(1-methylethyl)sulfonyl]phenoxy}phenyl)-4-(trifluoromethyl)-1H-benzimidazole]
18 | 3000 nM | 357 nM | Cc1nc2c(Cl)cccc2n1-c1cc(Oc2ccc(S(C)(=O)=O)cc2)ccc1Cl [Example 61, 4-chloro-1-{2-chloro-5-[4-(methylsulfonyl)phenoxy]phenyl}-2-methyl-1H-benzimidazole]
19 | 2670 nM | 235 nM | Cc1nc2c(C(F)(F)F)cccc2n1-c1ccc(Oc2cc(F)cc(S(C)(=O)=O)c2)cc1Cl [Example 103, 1-{2-chloro-4-[3-fluoro-5-(methylsulfonyl)phenoxy]phenyl}-2-methyl-4-(trifluoromethyl)-1H-benzimidazole]
20 | 2500 nM | 164 nM | CCCS(=O)(=O)c1cccc(Oc2ccc(Cl)c(-n3c(C)nc4c(Cl)cccc43)c2)c1 [Example 56, 4-chloro-1-{2-chloro-5-[3-(propylsulfonyl)phenoxy]phenyl}-2-methyl-1H-benzimidazole]
21 | 16000 nM | 2620 nM | Cc1cc(Oc2cc(F)cc(S(C)(=O)=O)c2)ccc1-n1cnc2c(C(F)(F)F)cccc21 [Example 96, 1-{4-[3-fluoro-5-(methylsulfonyl)phenoxy]-2-methylphenyl}-4-(trifluoromethyl)-1H-benzimidazole]
22 | 3990 nM | 1230 nM | CS(=O)(=O)c1cc(F)cc(Oc2ccc(-n3cnc4c(C(F)(F)F)cccc43)c(Cl)c2)c1 [Example 106, 1-{2-chloro-4-[3-fluoro-5-(methylsulfonyl)phenoxy]phenyl}-4-(trifluoromethyl)-1H-benzimidazole]
23 | 1960 nM | 304 nM | Cc1nc2c(C(F)(F)F)cccc2n1-c1ccc(Oc2cccc(S(C)(=O)=O)c2)cc1Cl [Example 102, 1-{2-chloro-4-[3-(methylsulfonyl)phenoxy]phenyl}-2-methyl-4-(trifluoromethyl)-1H-benzimidazole]
24 | 2500 nM | 198 nM | CCS(=O)(=O)c1cccc(Oc2cccc(-n3c(C(F)(F)F)nc4c(C(F)(F)F)cccc43)c2)c1 [Example 77, 1-{3-[3-(ethylsulfonyl)phenoxy]phenyl}-2,4-bis(trifluoromethyl)-1H-benzimidazole]
25 | 646 nM | 100 nM | Cc1nc2c(Cl)cccc2n1-c1cccc(Oc2cc(S(C)(=O)=O)ccc2Br)c1 [Example 51, 1-{3-[2-bromo-5-(methylsulfonyl)phenoxy]phenyl}-4-chloro-2-methyl-1H-benzimidazole]
26 | 4700 nM | 512 nM | CS(=O)(=O)c1cc(F)cc(Oc2ccc(-n3c(C(F)(F)F)nc4c(C(F)(F)F)cccc43)cc2)c1 [Example 72, 1-{4-[3-fluoro-5-(methylsulfonyl)phenoxy]phenyl}-2,4-bis(trifluoromethyl)-1H-benzimidazole]
27 | 31 nM | 6.6 nM | CCS(=O)(=O)c1cc(F)cc(Oc2cccc(-n3c(C)nc4c(Cl)cccc43)c2)c1 [Example 45, 4-chloro-1-{3-[3-(ethylsulfonyl)-5-fluorophenoxy]phenyl}-2-methyl-1H-benzimidazole]
28 | > 1000 nM | > 1000 nM | Cc1nc2c(C(F)(F)F)cccc2n1-c1ccc(OCc2cccc(S(C)(=O)=O)c2)cc1 [Example 87, 2-methyl-1(4-{[3-(methylsulfonyl)benzyl]oxy}phenyl)-4-(trifluoromethyl)-1H-benzimidazole]
